Measured values published in US4309559A, “Sulphonamides useful as pesticides” (FBC Limited, priority 1977, dated 1982).

What was measured:
Assay type in all cases: in vivo
Peas (Pisum sativum) [1] = assay: Post-emergence foliar spray, herbicidal/growth regulant response, peas; conditions: Lathyrus oleraceus, 168 h, foliar spray 11.2 kg/ha, 7 days, 0=no effect, 100=complete kill, read-out: herbicidal or growth regulant response index
Procedure: (§1) Seeds of the plant species listed below were sown in anodised aluminium pans, 19 cm long×9.5 cm wide×5 cm deep, containing John Innes I potting compost. They were then watered and placed in a controlled environment room (22° C.; 65-85% relative humidity; 14 hours per day artificial illumination at 13,000 lux). Fourteen days after sowing, the seedlings received a foliar spray of a compound listed below, formulated as a solution in 1:1 by volume aqueous acetone. The concentration of active ingredient and volume of application were adjusted so as to be equivalent to a rate of 11.2 kg/ha in 450 liters per hectare. After seven days growth in the controlled environment room, the plants were visually assessed for any herbicidal or growth regulant response. All differences from the untreated control were scored according to an index where 0=no effect and 100=complete kill.
(§2) The product of Example 95 was tested according to the procedure of Examples 49-55.

Mustard (Sinapis alba) [2] = assay: Post-emergence foliar spray, herbicidal/growth regulant response, mustard; conditions: 168 h, foliar spray 11.2 kg/ha, 7 days, 0=no effect, 100=complete kill, read-out: herbicidal or growth regulant response index
Procedure: as §1, §2

[3] = tested on: Linseed (Linum usitatissimum); assay: Post-emergence foliar spray, herbicidal/growth regulant response, linseed; conditions: 168 h, foliar spray 11.2 kg/ha, 7 days, 0=no effect, 100=complete kill, read-out: herbicidal or growth regulant response index
Procedure: as §1, §2

[4] = tested on: Ryegrass (Lolium perenne); assay: Post-emergence foliar spray, herbicidal/growth regulant response, ryegrass; conditions: 168 h, foliar spray 11.2 kg/ha, 7 days, 0=no effect, 100=complete kill, read-out: herbicidal or growth regulant response index
Procedure: as §1, §2

[5] = tested on: Sugarbeet (Beta vulgaris); assay: Post-emergence foliar spray, herbicidal/growth regulant response, sugarbeet; conditions: 168 h, foliar spray 11.2 kg/ha, 7 days, 0=no effect, 100=complete kill, read-out: herbicidal or growth regulant response index
Procedure: as §1, §2

Oat (Avena sativa) = assay: Post-emergence foliar spray, herbicidal/growth regulant response, oat; conditions: 168 h, foliar spray 11.2 kg/ha, 7 days, 0=no effect, 100=complete kill, read-out: herbicidal or growth regulant response index
Procedure: as §1, §2

[6] = tested on: French beans (Phaseolus vulgaris); assay: Post-emergence foliar spray, herbicidal/growth regulant response, French beans; conditions: foliar spray 11.2 kg/ha, 7 days, 0=no effect, 100=complete kill
Procedure: as §1, §2

Peas (Pisum sativum) [7] = assay: Soil incorporation (attaclay/sand dust), growth regulatory or herbicidal effects, peas; conditions: Lathyrus oleraceus, 504 h, soil incorporation 26 ppm, 21 days, 0=no effect, 100=complete kill, read-out: growth regulatory or herbicidal effect score
Summary of the method: (§3)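 Active ingredient formulated as attaclay/sand dust and mixed into John Innes I potting compost at 26 or 130 ppm w/v (about 11.2 or 56 kg a.i./ha cultivated to 5 cm). Seeds sown in treated soil, grown 21 days at 22° C, 65-85% RH, 14 h light at 13,000 lux; visual score 0-100 versus untreated control.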

Mustard (Sinapis alba) [8] = assay: Soil incorporation (attaclay/sand dust), growth regulatory or herbicidal effects, mustard; conditions: 504 h, soil incorporation 26 ppm, 21 days, 0=no effect, 100=complete kill, read-out: growth regulatory or herbicidal effect score
Summary of the method: as §3

[9] = tested on: Linseed (Linum usitatissimum); assay: Soil incorporation (attaclay/sand dust), growth regulatory or herbicidal effects, linseed; conditions: 504 h, soil incorporation 26 ppm, 21 days, 0=no effect, 100=complete kill, read-out: growth regulatory or herbicidal effect score
Summary of the method: as §3

Maize (Zea mays) = assay: Soil incorporation (attaclay/sand dust), growth regulatory or herbicidal effects, maize; conditions: 504 h, soil incorporation 26 ppm, 21 days, 0=no effect, 100=complete kill, read-out: growth regulatory or herbicidal effect score
Summary of the method: as §3

Oats (Avena sativa) = assay: Soil incorporation (attaclay/sand dust), growth regulatory or herbicidal effects, oats; conditions: 504 h, soil incorporation 26 ppm, 21 days, 0=no effect, 100=complete kill, read-out: growth regulatory or herbicidal effect score
Summary of the method: as §3

[10] = tested on: Ryegrass (Lolium perenne); assay: Soil incorporation (attaclay/sand dust), growth regulatory or herbicidal effects, ryegrass; conditions: 504 h, soil incorporation 26 ppm, 21 days, 0=no effect, 100=complete kill, read-out: growth regulatory or herbicidal effect score
Summary of the method: as §3

[11] = tested on: Chickweed (Stellaria media); assay: Pre-emergence soil surface spray, chickweed; conditions: soil surface spray 2.8 kg/ha, 21 days, 0=no effect, 100=complete kill
Source text: (§4) Seeds of the plant species listed below were sown in John Innes I potting compost in aluminium pans, 19 cm long×9.5 cm wide×5.0 cm high, one species per pan. The soil surface was then sprayed with a compound listed below, formulated as a solution in 1:1 by volume aqueous acetone except for the compound of Example 44 which was formulated as an aqueous suspension containing 1000 parts per million of the wetting agent Lissapol NX (nonylphenol/ethylene oxide condensate). Each compound was applied at a rate of 2.8 kg of active ingredient per hectare in 450 liters of spray liquid per hectare. The pans were then watered, and placed in a controlled environment room (22° C., relative humidity 65-85%, 14 hours per day artificial illumination at 17,000 lux) for 21 days. The plants were then visually assessed for any growth regulatory or herbicidal effects. All differences from an untreated control were scored on a scale from 0-100, where 0 signifies no effect and 100 signifies complete kill.

Mustard (Sinapis alba) [12] = assay: Pre-emergence soil surface spray, mustard; conditions: soil surface spray 2.8 kg/ha, 21 days, 0=no effect, 100=complete kill
Source text: as §4

Cotton (Gossypium sp.) = assay: Pre-emergence soil surface spray, cotton; conditions: soil surface spray 2.8 kg/ha, 21 days, 0=no effect, 100=complete kill
Source text: as §4

[13] = tested on: Tomato (Lycopersicon esculentum); assay: Pre-emergence soil surface spray, tomato; conditions: soil surface spray 2.8 kg/ha, 21 days, 0=no effect, 100=complete kill
Source text: as §4

[14] = tested on: Fathen (Chenopodium album); assay: Pre-emergence soil surface spray, fathen; conditions: soil surface spray 2.8 kg/ha, 21 days, 0=no effect, 100=complete kill
Source text: as §4

Carrot (Daucus carota) = assay: Pre-emergence soil surface spray, carrot; conditions: soil surface spray 2.8 kg/ha, 21 days, 0=no effect, 100=complete kill
Source text: as §4

[15] = tested on: Wheat (Triticum aestivum); assay: Pre-emergence soil surface spray, wheat; conditions: soil surface spray 2.8 kg/ha, 21 days, 0=no effect, 100=complete kill
Source text: as §4

Barley (Hordeum vulgare) = assay: Pre-emergence soil surface spray, barley; conditions: soil surface spray 2.8 kg/ha, 21 days, 0=no effect, 100=complete kill
Source text: as §4

Wild Oat (Avena fatua) = assay: Pre-emergence soil surface spray, wild oat; conditions: soil surface spray 2.8 kg/ha, 21 days, 0=no effect, 100=complete kill
Source text: as §4

[16] = tested on: Blackgrass (Alopecurus myosuroides); assay: Pre-emergence soil surface spray, blackgrass; conditions: soil surface spray 2.8 kg/ha, 21 days, 0=no effect, 100=complete kill
Source text: as §4

[17] = tested on: Barnyardgrass (Echinochloa crus-galli); assay: Pre-emergence soil surface spray, barnyardgrass; conditions: soil surface spray 2.8 kg/ha, 21 days, 0=no effect, 100=complete kill
Source text: as §4

[18] = tested on: Crabgrass (Digitaria sanguinalis); assay: Pre-emergence soil surface spray, crabgrass; conditions: soil surface spray 2.8 kg/ha, 21 days, 0=no effect, 100=complete kill
Source text: as §4

[19] = tested on: cucumber powdery mildew Erysiphe cichoracearum; assay: Cucumber powdery mildew control on cucumber plants; conditions: 2000 mg per liter; soil and leaves; 14 days; controls less than 5%

Row | Structure (SMILES) | pest or weed control at 11200 g/ha (Peas (Pisum sativum) [1]) [%] | pest or weed control at 11200 g/ha (Mustard (Sinapis alba) [2]) [%] | pest or weed control at 11200 g/ha [3] [%] | pest or weed control at 11200 g/ha [4] [%] | plant injury at 11200 g/ha [5] [%] | plant injury at 11200 g/ha (Oat (Avena sativa)) [%] | herbicidal or growth regulant response index [6] | pest or weed control at 26 µg/mL (Peas (Pisum sativum) [7]) [%] | pest or weed control at 26 µg/mL (Mustard (Sinapis alba) [8]) [%] | pest or weed control at 26 µg/mL [9] [%] | plant injury at 26 µg/mL (Maize (Zea mays)) [%] | plant injury at 26 µg/mL (Oats (Avena sativa)) [%] | pest or weed control at 26 µg/mL [10] [%] | growth regulatory or herbicidal effect score [11] | growth regulatory or herbicidal effect score (Mustard (Sinapis alba) [12]) | growth regulatory or herbicidal effect score (Cotton (Gossypium sp.)) | growth regulatory or herbicidal effect score [13] | growth regulatory or herbicidal effect score [14] | growth regulatory or herbicidal effect score (Carrot (Daucus carota)) | growth regulatory or herbicidal effect score [15] | also measured
1 | CCOC(=O)C(C)N(c1c(C)cccc1C)S(C)(=O)=O (stereo not drawn) [Example 15] | 5 | 90 | 90 | 10 | 90 | 5 | 70 | 0 | 100 | 70 | 50 | 20 | 100 | 30 | 10 | 0 | 20 | 100 | 0 | 0 | growth regulatory or herbicidal effect score (Barley (Hordeum vulgare)): 0; growth regulatory or herbicidal effect score (Wild Oat (Avena fatua)): 5; growth regulatory or herbicidal effect score [16]: 20; growth regulatory or herbicidal effect score [17]: 40; growth regulatory or herbicidal effect score [18]: 100; fungus control, cucumber powdery mildew [19]: 82%
2 | CCOC(=O)C(C)N(c1c(C)cccc1Cl)S(C)(=O)=O (stereo not drawn) [Example 22] | 5 | 80 | 30 | 5 | 80 | 5 | 80 | 0 | 100 | 100 | 50 | 50 | 90 | 50 | 90 | 0 | 40 | 100 | 0 | 0 | growth regulatory or herbicidal effect score (Barley (Hordeum vulgare)): 0; growth regulatory or herbicidal effect score (Wild Oat (Avena fatua)): 0; growth regulatory or herbicidal effect score [16]: 40; growth regulatory or herbicidal effect score [17]: 0; growth regulatory or herbicidal effect score [18]: 90
